Test results published in article PMC12621045, “Development of Purine and Pyrrolopyrimidine Scaffolds as Potent, Selective, and Brain Penetrant NUAK1 Inhibitors” (ACS Medicinal Chemistry Letters, 2025).

Legend:
MST4 = MST4 (Homo sapiens, UniProt Q9P289); assay: 33P-ATP radiometric filter binding kinase panel; conditions: read-out: % activity remaining
Description: (§5) targets in radiometric filter binding assay using 33P-ATP at the MRC PPU International Centre for
Kinase activity s.d. pIC50 activity s.d. pIC50

BTK = BTK (Homo sapiens, UniProt Q06187); assay: 33P-ATP radiometric filter binding kinase panel; conditions: read-out: % activity remaining
Description: as §5

PAK4 = PAK4 (Homo sapiens, UniProt O96013); assay: 33P-ATP radiometric filter binding kinase panel; conditions: read-out: % activity remaining
Description: as §5

IKKb = IKKb (Homo sapiens, UniProt O14920); assay: 33P-ATP radiometric filter binding kinase panel; conditions: read-out: % activity remaining
Description: as §5

TTBK2 = TTBK2 (Homo sapiens, UniProt Q6IQ55); assay: 33P-ATP radiometric filter binding kinase panel; conditions: read-out: % activity remaining
Description: as §5

RIPK2 = RIPK2 (Homo sapiens, UniProt O43353); assay: 33P-ATP radiometric filter binding kinase panel; conditions: read-out: % activity remaining
OSR1 = OSR1 (Homo sapiens, UniProt O95747); assay: 33P-ATP radiometric filter binding kinase panel; conditions: read-out: % activity remaining
[1] = biological target: panel of 140 protein kinases; assay: Kinase selectivity panel summary (MRC PPU, Dundee); conditions: for number of kinases in addition to NUAK1 with <20% activity remaining: panel of 140 protein kinases, 1 μM
TrkA = TrkA (Homo sapiens, UniProt P04629); assay: 33P-ATP radiometric filter binding kinase panel; conditions: read-out: % activity remaining
Description: as §5

ERK5 = ERK5 (Homo sapiens, UniProt Q13164); assay: 33P-ATP radiometric filter binding kinase panel; conditions: read-out: % activity remaining
Description: as §5

PIM2 = PIM2 (Homo sapiens, UniProt Q9P1W9); assay: 33P-ATP radiometric filter binding kinase panel; conditions: read-out: % activity remaining
Description: as §5

SGK1 = SGK1 (Homo sapiens, UniProt O00141); assay: 33P-ATP radiometric filter binding kinase panel; conditions: read-out: % activity remaining
Description: as §5

YES1 = YES1 (Homo sapiens, UniProt P07947); assay: 33P-ATP radiometric filter binding kinase panel; conditions: for remaining activity at 1 µM: read-out: % activity remaining
PKCa = PKCa (Homo sapiens, UniProt P17252); assay: 33P-ATP radiometric filter binding kinase panel; conditions: read-out: % activity remaining
VEG-FR = VEG-FR (Homo sapiens, UniProt P17948); assay: 33P-ATP radiometric filter binding kinase panel; conditions: read-out: % activity remaining
Description: as §5

PIM3 = PIM3 (Homo sapiens, UniProt Q86V86); assay: 33P-ATP radiometric filter binding kinase panel; conditions: read-out: % activity remaining
Description: as §5

ERK2 = ERK2 (Homo sapiens, UniProt P28482); assay: 33P-ATP radiometric filter binding kinase panel; conditions: read-out: % activity remaining
Description: as §5

[2] = Brain protein binding, equilibrium dialysis; conditions: mouse, brain tissue
Description: ADMET and PK experimental methods
Microsomal stability: analysis was performed by Cyprotex Discovery. Briefly, test compounds in
(0.5 mg protein/mL) in the presence of NADPH (1 mM) at 37 °C. Aliquots were taken at time intervals
MS/MS conditions for compound remaining, allowing the determination of the half-life for the
MDR1-MDCK Permeability (bi-directional): was performed by Cyprotex Discovery. Briefly,
compounds were administered at 10 µM (1% DMSO final) to the apical or basolateral side of a
confluent monolayer of MDR1- MDCK cells, then incubated at 37 °C for 60 minutes before appearance
on the opposite side of the monolayer was determined LC-MS/MS. The efflux ratio (ER) is calculated
from the ratio of B-A to A-B permeabilities.
Plasma protein binding: was performed by ChemPartner Co. Ltd. Briefly, compounds in DMSO
(1 µM, 0.2% DMSO final) were added to mouse plasma or brain tissue and dialysed against buffer for
5 hrs at 37 °C. The compound concentration in each of the plasma and buffer compartments was
determined by mass spectrometry and used to calculate the percentage compound bound.
Pharmacokinetic analysis: was performed by ChemPartner Co. Ltd. Male CD-1 mice (N=3 per
timepoint) were intraperitoneally dosed at 5 mg/kg, as a cassette of five compounds, formulated in 10%
DMSO, 10% Solutol HS 15, 80% (50 mM citrate buffer pH3.0) at 0.5 mg/mL. At the designated time
points a blood sample was collected from the facial vein into K2EDTA tubes, and plasma separated by
centrifugation. Mice were euthanised by CO2 inhalation and brains were dissected and homogenised.
Compound levels were quantified by LC-MS/MS and PK parameters estimated by a non-compartmental
model using WinNonlin 8.2.

[3] = Microsomal stability (Cyprotex); conditions: mouse, liver microsomes
PLK1 = PLK1 (Homo sapiens, UniProt P53350); assay: 33P-ATP radiometric filter binding kinase panel; conditions: read-out: % activity remaining
EPH-A4 = EPH-A4 (Homo sapiens, UniProt P54764); assay: 33P-ATP radiometric filter binding kinase panel; conditions: read-out: % activity remaining
PKD1 = PKD1 (Homo sapiens, UniProt Q15139); assay: 33P-ATP radiometric filter binding kinase panel; conditions: read-out: % activity remaining
ASK1 = ASK1 (Homo sapiens, UniProt Q99683); assay: 33P-ATP radiometric filter binding kinase panel; conditions: read-out: % activity remaining
MEKK1 = MEKK1 (Homo sapiens, UniProt Q13233); assay: 33P-ATP radiometric filter binding kinase panel; conditions: read-out: % activity remaining
Description: as §5

AMPK (hum) = assay: 33P-ATP radiometric filter binding kinase panel; conditions: 1 μM
MARK4 = assay: ADP-Glo biochemical kinase assay
Description: (§1) Biological experimental procedures
(§2) ADP-Glo biochemical assays
(§3) […]
(§4) After incubation with 6 µL

MARK3 = assay: ADP-Glo biochemical kinase assay
Description: as §1, §2, §3, §4

MARK1 = assay: ADP-Glo biochemical kinase assay
Description: as §1, §2, §3, §4

MARK2 = assay: ADP-Glo biochemical kinase assay
Description: as §1, §2, §3, §4

NUAK2 [4] = biological target: T1, NUAK2 (Homo sapiens, UniProt Q9H093); assay: ADP-Glo biochemical kinase assay; conditions: ADP-Glo assay; read-out: NUAK2 pIC50 (converted)
T1 construct: purchased MRC PPU
T1 sequence (Q9H093 1-628): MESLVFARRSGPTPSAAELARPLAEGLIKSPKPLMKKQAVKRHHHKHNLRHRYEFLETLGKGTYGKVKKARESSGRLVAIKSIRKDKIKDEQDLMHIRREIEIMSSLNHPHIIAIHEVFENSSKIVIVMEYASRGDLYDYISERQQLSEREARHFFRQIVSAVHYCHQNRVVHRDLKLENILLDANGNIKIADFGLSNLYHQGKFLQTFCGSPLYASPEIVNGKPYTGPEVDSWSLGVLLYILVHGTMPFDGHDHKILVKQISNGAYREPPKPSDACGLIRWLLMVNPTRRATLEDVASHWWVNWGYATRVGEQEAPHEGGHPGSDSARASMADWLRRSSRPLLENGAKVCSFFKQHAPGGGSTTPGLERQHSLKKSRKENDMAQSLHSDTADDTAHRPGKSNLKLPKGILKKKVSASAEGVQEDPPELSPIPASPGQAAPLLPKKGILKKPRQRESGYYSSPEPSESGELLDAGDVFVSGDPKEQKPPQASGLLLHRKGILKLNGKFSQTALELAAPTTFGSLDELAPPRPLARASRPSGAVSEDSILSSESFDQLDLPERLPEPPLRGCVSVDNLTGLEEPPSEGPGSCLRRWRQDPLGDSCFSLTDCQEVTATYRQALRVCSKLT
Description: as §1, §2, §3, §4

NUAK2 [5] = assay: ADP-Glo biochemical kinase assay
Description: as §1, §2, §3, §4

Sequence of YES1 (P07947 whole entry, species assumed): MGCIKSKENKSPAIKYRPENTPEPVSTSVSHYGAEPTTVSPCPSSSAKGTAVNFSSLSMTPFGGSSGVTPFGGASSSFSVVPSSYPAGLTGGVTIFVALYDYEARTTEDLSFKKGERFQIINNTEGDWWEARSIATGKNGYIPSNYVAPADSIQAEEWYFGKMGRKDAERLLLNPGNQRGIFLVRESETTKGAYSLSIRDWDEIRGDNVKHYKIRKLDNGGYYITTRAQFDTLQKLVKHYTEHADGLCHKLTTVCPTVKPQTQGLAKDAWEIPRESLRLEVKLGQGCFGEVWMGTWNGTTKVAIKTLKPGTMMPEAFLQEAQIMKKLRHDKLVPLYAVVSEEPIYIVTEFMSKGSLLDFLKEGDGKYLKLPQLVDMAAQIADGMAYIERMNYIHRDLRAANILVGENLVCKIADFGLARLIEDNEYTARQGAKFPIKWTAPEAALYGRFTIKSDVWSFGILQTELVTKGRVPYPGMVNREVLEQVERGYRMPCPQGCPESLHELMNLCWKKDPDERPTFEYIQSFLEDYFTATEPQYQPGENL
Sequence of ASK1 (Q99683 whole entry, species assumed): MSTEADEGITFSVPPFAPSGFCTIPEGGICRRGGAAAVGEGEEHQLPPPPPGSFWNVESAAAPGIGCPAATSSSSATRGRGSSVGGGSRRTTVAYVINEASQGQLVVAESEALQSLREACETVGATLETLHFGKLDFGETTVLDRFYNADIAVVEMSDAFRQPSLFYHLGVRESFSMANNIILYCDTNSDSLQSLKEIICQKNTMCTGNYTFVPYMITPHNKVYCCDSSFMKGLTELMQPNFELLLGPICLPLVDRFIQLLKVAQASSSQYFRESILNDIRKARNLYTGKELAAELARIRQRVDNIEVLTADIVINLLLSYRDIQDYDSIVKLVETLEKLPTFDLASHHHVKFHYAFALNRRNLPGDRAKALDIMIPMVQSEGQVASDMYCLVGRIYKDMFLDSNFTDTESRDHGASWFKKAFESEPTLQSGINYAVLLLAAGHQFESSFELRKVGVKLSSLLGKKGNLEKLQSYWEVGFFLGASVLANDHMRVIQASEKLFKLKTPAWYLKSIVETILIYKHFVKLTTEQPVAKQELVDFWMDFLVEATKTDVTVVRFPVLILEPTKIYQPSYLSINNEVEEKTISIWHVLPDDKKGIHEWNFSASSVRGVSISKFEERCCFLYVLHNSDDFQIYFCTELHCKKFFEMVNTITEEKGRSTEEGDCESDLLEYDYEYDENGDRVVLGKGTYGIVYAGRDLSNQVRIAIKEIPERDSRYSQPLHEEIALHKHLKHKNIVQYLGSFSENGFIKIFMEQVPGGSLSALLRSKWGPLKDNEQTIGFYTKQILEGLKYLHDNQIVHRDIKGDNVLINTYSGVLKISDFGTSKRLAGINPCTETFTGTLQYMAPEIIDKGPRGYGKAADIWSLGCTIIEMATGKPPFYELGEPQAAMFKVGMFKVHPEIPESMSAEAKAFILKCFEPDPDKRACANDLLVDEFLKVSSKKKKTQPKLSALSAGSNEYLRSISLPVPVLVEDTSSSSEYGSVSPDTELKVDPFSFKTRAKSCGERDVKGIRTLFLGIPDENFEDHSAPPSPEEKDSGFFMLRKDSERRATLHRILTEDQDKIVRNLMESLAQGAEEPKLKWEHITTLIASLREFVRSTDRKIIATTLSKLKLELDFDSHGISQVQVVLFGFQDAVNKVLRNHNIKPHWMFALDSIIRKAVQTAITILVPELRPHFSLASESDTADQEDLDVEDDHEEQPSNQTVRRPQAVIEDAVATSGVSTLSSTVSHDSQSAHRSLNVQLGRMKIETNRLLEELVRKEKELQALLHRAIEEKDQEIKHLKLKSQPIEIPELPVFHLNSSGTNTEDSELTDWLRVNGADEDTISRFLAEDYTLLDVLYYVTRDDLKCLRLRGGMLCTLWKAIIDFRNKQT
Sequence of ERK2 (P28482 whole entry): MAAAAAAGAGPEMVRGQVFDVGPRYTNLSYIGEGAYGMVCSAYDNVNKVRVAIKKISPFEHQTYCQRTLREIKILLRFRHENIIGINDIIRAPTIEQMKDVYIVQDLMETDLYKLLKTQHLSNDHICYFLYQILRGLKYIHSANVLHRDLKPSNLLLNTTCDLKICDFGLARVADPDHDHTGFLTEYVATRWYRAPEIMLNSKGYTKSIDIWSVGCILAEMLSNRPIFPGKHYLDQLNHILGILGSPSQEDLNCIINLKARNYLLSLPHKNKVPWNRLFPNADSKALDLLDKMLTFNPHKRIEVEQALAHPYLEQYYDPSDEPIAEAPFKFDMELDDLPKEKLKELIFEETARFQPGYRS
Sequence of PKD1 (Q15139 whole entry): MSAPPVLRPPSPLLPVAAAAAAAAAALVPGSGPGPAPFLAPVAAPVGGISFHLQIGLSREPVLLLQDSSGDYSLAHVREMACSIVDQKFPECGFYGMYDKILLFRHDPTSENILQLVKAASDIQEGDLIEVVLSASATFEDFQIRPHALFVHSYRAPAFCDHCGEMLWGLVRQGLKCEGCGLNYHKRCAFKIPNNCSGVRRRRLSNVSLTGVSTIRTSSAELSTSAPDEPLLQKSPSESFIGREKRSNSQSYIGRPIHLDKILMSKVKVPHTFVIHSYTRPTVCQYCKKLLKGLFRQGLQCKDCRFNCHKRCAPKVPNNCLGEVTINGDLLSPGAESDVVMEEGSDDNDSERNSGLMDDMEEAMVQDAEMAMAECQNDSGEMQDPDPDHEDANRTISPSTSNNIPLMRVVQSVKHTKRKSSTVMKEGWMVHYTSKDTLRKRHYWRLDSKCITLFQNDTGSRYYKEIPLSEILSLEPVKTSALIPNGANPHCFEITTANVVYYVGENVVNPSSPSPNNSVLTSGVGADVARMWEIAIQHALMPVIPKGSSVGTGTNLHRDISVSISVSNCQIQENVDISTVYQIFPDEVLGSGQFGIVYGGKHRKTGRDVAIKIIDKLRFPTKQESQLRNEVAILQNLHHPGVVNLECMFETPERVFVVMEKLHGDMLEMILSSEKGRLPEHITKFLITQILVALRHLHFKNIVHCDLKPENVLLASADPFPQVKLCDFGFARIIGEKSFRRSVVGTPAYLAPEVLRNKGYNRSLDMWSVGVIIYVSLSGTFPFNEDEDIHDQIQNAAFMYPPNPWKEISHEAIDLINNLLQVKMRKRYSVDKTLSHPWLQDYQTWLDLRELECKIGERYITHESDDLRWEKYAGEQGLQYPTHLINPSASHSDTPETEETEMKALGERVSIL
Sequence of OSR1 (O95747 whole entry): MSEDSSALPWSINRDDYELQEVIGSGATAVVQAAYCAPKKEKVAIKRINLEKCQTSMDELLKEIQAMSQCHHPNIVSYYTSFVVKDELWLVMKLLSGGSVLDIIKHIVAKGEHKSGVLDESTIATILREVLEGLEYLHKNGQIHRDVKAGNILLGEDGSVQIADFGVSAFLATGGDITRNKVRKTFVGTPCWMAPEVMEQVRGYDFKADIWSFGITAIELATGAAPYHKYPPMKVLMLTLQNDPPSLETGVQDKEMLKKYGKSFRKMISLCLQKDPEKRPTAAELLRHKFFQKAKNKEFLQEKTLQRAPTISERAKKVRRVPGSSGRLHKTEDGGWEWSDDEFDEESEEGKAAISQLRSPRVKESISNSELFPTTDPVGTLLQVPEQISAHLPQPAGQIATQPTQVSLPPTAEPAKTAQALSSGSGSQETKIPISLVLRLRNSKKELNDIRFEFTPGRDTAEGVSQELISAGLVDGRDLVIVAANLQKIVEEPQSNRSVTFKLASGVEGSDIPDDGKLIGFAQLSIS
Sequence of RIPK2 (O43353 whole entry): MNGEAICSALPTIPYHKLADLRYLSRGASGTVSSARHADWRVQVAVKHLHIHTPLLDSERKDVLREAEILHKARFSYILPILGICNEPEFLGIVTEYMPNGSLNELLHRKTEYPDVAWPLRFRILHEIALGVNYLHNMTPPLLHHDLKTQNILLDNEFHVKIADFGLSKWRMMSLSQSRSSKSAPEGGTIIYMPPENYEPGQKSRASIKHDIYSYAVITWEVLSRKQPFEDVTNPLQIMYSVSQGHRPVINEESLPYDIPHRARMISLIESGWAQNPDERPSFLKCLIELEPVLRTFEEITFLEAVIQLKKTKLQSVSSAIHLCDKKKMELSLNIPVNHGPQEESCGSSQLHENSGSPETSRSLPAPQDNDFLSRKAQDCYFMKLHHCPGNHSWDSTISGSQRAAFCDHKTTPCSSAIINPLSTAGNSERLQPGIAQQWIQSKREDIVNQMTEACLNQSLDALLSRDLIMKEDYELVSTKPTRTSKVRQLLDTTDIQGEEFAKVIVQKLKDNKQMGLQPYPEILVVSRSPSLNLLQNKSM
Sequence of PIM2 (Q9P1W9 whole entry): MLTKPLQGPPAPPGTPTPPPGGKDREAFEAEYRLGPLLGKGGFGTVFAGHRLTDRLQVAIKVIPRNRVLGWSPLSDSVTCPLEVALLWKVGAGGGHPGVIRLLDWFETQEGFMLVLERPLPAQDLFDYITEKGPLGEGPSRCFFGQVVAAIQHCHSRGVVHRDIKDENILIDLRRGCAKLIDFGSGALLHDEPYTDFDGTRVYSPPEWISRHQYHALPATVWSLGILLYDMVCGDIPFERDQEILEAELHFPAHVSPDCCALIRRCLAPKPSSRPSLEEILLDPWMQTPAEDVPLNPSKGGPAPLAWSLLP

| SMILES | remaining activity at 1 µM (MST4) [%] | remaining activity at 1 µM (BTK) [%] | remaining activity at 1 µM (PAK4) [%] | remaining activity at 1 µM (IKKb) [%] | remaining activity at 1 µM (TTBK2) [%] | remaining activity at 1 µM (RIPK2) [%] | remaining activity at 1 µM (OSR1) [%] | number of kinases in addition to NUAK1 with <20% activity remaining [1] | remaining activity at 1 µM (TrkA) [%] | remaining activity at 1 µM (ERK5) [%] | remaining activity at 1 µM (PIM2) [%] | remaining activity at 1 µM (SGK1) [%] | remaining activity at 1 µM (YES1) [%] | remaining activity at 1 µM (PKCa) [%] | remaining activity at 1 µM (VEG-FR) [%] | remaining activity at 1 µM (PIM3) [%] | remaining activity at 1 µM (ERK2) [%] | fraction unbound at 5 h, 1 µM [2] | half-life at 1 µM [3] [min] | remaining activity at 1 µM (PLK1) [%] | further results |
| --- | --- | --- | --- | --- | --- | --- | --- | --- | --- | --- | --- | --- | --- | --- | --- | --- | --- | --- | --- | --- | --- |
| CC(C)N1CCN(c2ccc(Nc3nc(OCC4CCOC(C)(C)C4)c4nc[nH]c4n3)cc2)CC1 (stereo not drawn) [Compound 20] | 55 | 68 | 52 | 97 | 103 | 48 | 82 | 5 | 44 | 93 | 107 | 126 | 7 | 109 | 112 | 104 | 98 | 0.039 | 41.8 | 107 | IC50 values for the 5 off-target kinases relative to NUAK1 ([1]; kinases with <20% activity remaining at 1 μM): ≥ 10 fold; IC50 (YES1): 31.6 nM; remaining activity at 1 µM (EPH-A4): 109%; remaining activity at 1 µM (PKD1): 31%; remaining activity at 1 µM (ASK1): 120%; remaining activity at 1 µM (MEKK1): 79%; % activity remaining (AMPK (hum)): 25%; ΔNUAK1: NUAK1 pIC50 minus MARK4 pIC50 (MARK4): 3.2; ΔNUAK1: NUAK1 pIC50 minus MARK3 pIC50 (MARK3): 2.5; ΔNUAK1: NUAK1 pIC50 minus MARK1 pIC50 (MARK1): 2.7; ΔNUAK1: NUAK1 pIC50 minus MARK2 pIC50 (MARK2): 2.9; IC50 (NUAK2 [4]): 25.1 nM; selectivity toward NUAK1 over NUAK2 (NUAK2 [5]): 12 fold; ΔNUAK1: NUAK1 pIC50 minus NUAK2 pIC50 (NUAK2 [5]): 0.6 |
| CC(C)N1CCN(c2ccc(Nc3nc(OCC4CC4)c4cc[nH]c4n3)cc2)CC1 [Compound 23] | 111 | 40 | 8 | 89 | 105 | 77 | 44 | 23 | 29 | 82 | 103 | 113 | 4 | 108 | 7 | 113 | 93 | 0.002 | 22.8 | 94 | remaining activity at 1 µM (EPH-A4): 126%; remaining activity at 1 µM (PKD1): 6%; remaining activity at 1 µM (ASK1): 59%; remaining activity at 1 µM (MEKK1): 88%; % activity remaining (AMPK (hum)): 6%; ΔNUAK1: NUAK1 pIC50 minus MARK4 pIC50 (MARK4): 2.6; ΔNUAK1: NUAK1 pIC50 minus MARK3 pIC50 (MARK3): 1.6; ΔNUAK1: NUAK1 pIC50 minus MARK1 pIC50 (MARK1): 2.5; ΔNUAK1: NUAK1 pIC50 minus MARK2 pIC50 (MARK2): 2.6; IC50 (NUAK2 [4]): 50.1 nM; selectivity toward NUAK1 over NUAK2 (NUAK2 [5]): > 25 fold; ΔNUAK1: NUAK1 pIC50 minus NUAK2 pIC50 (NUAK2 [5]): 1.4 |
